Experimental data from US12636270B2, “Levothyroxine liquid formulations” (Fresenius Kabi USA, LLC, priority 2016, dated 2026).
Read-outs that look alike come from different tables or passages of the source.

How the values were obtained:
[1] = tromethamine 10 mg/mL, normal saline
Method: The HPLC conditions were as follows: • Column: Waters […]™ C8 (5 μm, 4.6×150 mm) HPLC column • Mobile Phase A: Sodium heptanesulfonate/Acetonitrile/Water/Methanol/H3PO4 (4.023 g/800 mL/1600 mL/1600 mL/4 mL) • Mobile Phase B: Sodium heptanesulfonate/Acetonitrile/Water/Methanol/H3PO4 (2.013 g/1000 mL/100 mL/900 mL/2 mL) • Diluent: 0.01 N NaOH • Column temperature: 25° C. • Flow rate: 1.5 mL/min • Injection volume: 40-200 μL • Autosampler temperature: 5° C. • Detection: UV at 225 nm • Separation mode: Gradient Gradient Program:
The effect of pH on levothyroxine stability was further tested in samples having a pH 9.5-11.5. Separate samples containing levothyroxine sodium at a concentration of 20 mcg/mL or 100 mcg/mL, tromethamine at a concentration of 10 mg/mL in normal saline were adjusted to various pH levels. 5 mL of each sample was filled into 10 cc amber tubing vials, and the vials were stoppered with 20 mm stoppers under nitrogen. The samples were stored at temperatures of 25° C., 40° C., and 55° C. The samples stored at 55° C. were analyzed by HPLC at 1 W and 2 W of storage. The samples stored at 25° C. and 40° C. were analyzed by HPLC at 2M of storage using the HPLC conditions described hereinabove.

[2] = 20 mcg/mL, tromethamine 10 mg/mL, normal saline
Method: Separate samples containing levothyroxine sodium at a concentration of 20 mcg/mL, tromethamine at a concentration of 10 mg/mL in normal saline (0.9% NaCl in water) were adjusted to various pH levels. One sample additionally contained hydroxypropyl (HP) β-cyclodextrin at a concentration of 10 mg/mL. 5 mL of each sample was filled into 10 cc amber tubing vials, and the vials were stoppered with 20 mm stoppers under nitrogen. The samples were stored at temperatures of 25° C., 40° C. and 55° C. The samples stored at 55° C. were analyzed by HPLC at 1 and 4 weeks (W) of storage. The samples stored at 40° C. were analyzed by HPLC at 4 W and 3 months (M) of storage. The samples stored at 25° C. were analyzed by HPLC at 3M of storage.
The HPLC conditions were as follows: • Column: Waters […]™ C8 (5 μm, 4.6×150 mm) HPLC column • Mobile Phase A: Sodium heptanesulfonate/Acetonitrile/Water/Methanol/H3PO4 (4.023 g/800 mL/1600 mL/1600 mL/4 mL) • Mobile Phase B: Sodium heptanesulfonate/Acetonitrile/Water/Methanol/H3PO4 (2.013 g/1000 mL/100 mL/900 mL/2 mL) • Diluent: 0.01 N NaOH • Column temperature: 25° C. • Flow rate: 1.5 mL/min • Injection volume: 40-200 μL • Autosampler temperature: 5° C. • Detection: UV at 225 nm • Separation mode: Gradient Gradient Program: […]
The results for liothyronine, largest unknown impurity, and total impurities as determined by peak area percent are set forth in Table 1.

[3] = 25° C., 2 M, pH 10.4, 20 mcg/mL
[4] = 25° C., 2 M, pH 10.4, 100 mcg/mL
[5] = 25° C., 2 M, pH 11.5, 20 mcg/mL
[6] = 40° C., 2 M, pH 10.4, 20 mcg/mL
[7] = 40° C., 2 M, pH 10.4, 100 mcg/mL
[8] = 40° C., 2 M, pH 11.5, 20 mcg/mL
[9] = 55° C., 1 W, pH 10.4, 20 mcg/mL
[10] = 55° C., 1 W, pH 10.4, 100 mcg/mL
[11] = 55° C., 1 W, pH 11.5, 20 mcg/mL
[12] = 55° C., 2 W, pH 10.4, 20 mcg/mL
[13] = 55° C., 2 W, pH 10.4, 100 mcg/mL
[14] = 55° C., 2 W, pH 11.5, 20 mcg/mL
[15] = 55° C., 1 W, pH 9, HP-β-cyclodextrin 10 mg/mL

N[C@@H](Cc1cc(I)c(Oc2cc(I)c(O)c(I)c2)c(I)c1)C(=O)[O-].[Na+] [Levothyroxine Na, 4-(4-hydroxy-3,5-diiodophenoxy)-3,5-diiodo-L-phenylalanine sodium]
% Liothyronine ([1]; 25° C., 2 M, pH 9.5, 20 mcg/mL): 0.34% | % largest unknown impurity ([1]; 25° C., 2 M, pH 9.5, 20 mcg/mL): 0.11% | % total impurities ([1]; 25° C., 2 M, pH 9.5, 20 mcg/mL): 0.7% | % Liothyronine [1, 3]: 0.17% | % largest unknown impurity [1, 3]: 0.20% | % total impurities [1, 3]: 0.6% | % Liothyronine [1, 4]: 0.23% | % largest unknown impurity [1, 4]: 0.11% | % total impurities [1, 4]: 0.6% | % Liothyronine [1, 5]: 0.34% | % largest unknown impurity [1, 5]: 15.4% | % total impurities [1, 5]: 19.6% | % Liothyronine ([1]; 40° C., 2 M, pH 9.5, 20 mcg/mL): 1.00% | % largest unknown impurity ([1]; 40° C., 2 M, pH 9.5, 20 mcg/mL): 0.14% | % total impurities ([1]; 40° C., 2 M, pH 9.5, 20 mcg/mL): 1.44% | % Liothyronine [1, 6]: 0.38% | % largest unknown impurity [1, 6]: 0.22% | % total impurities [1, 6]: 0.88% | % Liothyronine [1, 7]: 0.49% | % largest unknown impurity [1, 7]: 0.10% | % total impurities [1, 7]: 0.8% | % Liothyronine [1, 8]: 0.31% | % largest unknown impurity [1, 8]: 9.2% | % total impurities [1, 8]: 12.1% | % Liothyronine ([1]; 55° C., 1 W, pH 9.5, 20 mcg/mL): 0.9% | % largest unknown impurity ([1]; 55° C., 1 W, pH 9.5, 20 mcg/mL): 0.09% | % total impurities ([1]; 55° C., 1 W, pH 9.5, 20 mcg/mL): 1.2% | % Liothyronine [1, 9]: 0.2% | % largest unknown impurity [1, 9]: 0.09% | % total impurities [1, 9]: 0.5% | % Liothyronine [1, 10]: 0.3% | % largest unknown impurity [1, 10]: 0.11% | % total impurities [1, 10]: 0.7% | % Liothyronine [1, 11]: 0.1% | % largest unknown impurity [1, 11]: 0.08% | % total impurities [1, 11]: 0.4% | % Liothyronine ([1]; 55° C., 2 W, pH 9.5, 20 mcg/mL): 1.9% | % largest unknown impurity ([1]; 55° C., 2 W, pH 9.5, 20 mcg/mL): 0.1% | % total impurities ([1]; 55° C., 2 W, pH 9.5, 20 mcg/mL): 2.0% | % Liothyronine [1, 12]: 0.4% | % largest unknown impurity [1, 12]: 0.1% | % total impurities [1, 12]: 0.9% | % Liothyronine [1, 13]: 0.8% | % largest unknown impurity [1, 13]: 0.11% | % total impurities [1, 13]: 1.1% | % Liothyronine [1, 14]: 0.2% | % largest unknown impurity [1, 14]: 0.1% | % total impurities [1, 14]: 0.4% | % Liothyronine ([2]; 25° C., 3 M, pH 9.5): 0.6% | % largest unknown impurity ([2]; 25° C., 3 M, pH 9.5): 0.46% | % total impurities ([2]; 25° C., 3 M, pH 9.5): 1.51% | % Liothyronine ([2]; 25° C., 3 M, pH 10): 0.35% | % largest unknown impurity ([2]; 25° C., 3 M, pH 10): 0.11% | % total impurities ([2]; 25° C., 3 M, pH 10): 0.71% | % largest unknown impurity ([2]; 40° C., 3 M, pH 9.5): 0.48% | % total impurities ([2]; 40° C., 3 M, pH 9.5): 2.66% | % largest unknown impurity ([2]; 40° C., 3 M, pH 10): 0.16% | % total impurities ([2]; 40° C., 3 M, pH 10): 1.35% | % Liothyronine ([2]; 40° C., 4 W, pH 9.5): 0.9% | % largest unknown impurity ([2]; 40° C., 4 W, pH 9.5): 0.12% | % total impurities ([2]; 40° C., 4 W, pH 9.5): 1.7% | % Liothyronine ([2]; 40° C., 4 W, pH 10): 0.4% | % largest unknown impurity ([2]; 40° C., 4 W, pH 10): 0.12% | % total impurities ([2]; 40° C., 4 W, pH 10): 0.6% | % Liothyronine ([2]; 55° C., 1 W, pH 8): 15.2% | % largest unknown impurity ([2]; 55° C., 1 W, pH 8): 1.59% | % total impurities ([2]; 55° C., 1 W, pH 8): 17.5% | % Liothyronine [2, 15]: 2.7% | % largest unknown impurity [2, 15]: 0.86% | % total impurities [2, 15]: 4.0% | % Liothyronine ([2]; 55° C., 1 W, pH 9): 2.7% | % largest unknown impurity ([2]; 55° C., 1 W, pH 9): 0.67% | % total impurities ([2]; 55° C., 1 W, pH 9): 3.6% | % Liothyronine ([2]; 55° C., 1 W, pH 9.5): 1.2% | % largest unknown impurity ([2]; 55° C., 1 W, pH 9.5): 0.50% | % total impurities ([2]; 55° C., 1 W, pH 9.5): 2.2% | % Liothyronine ([2]; 55° C., 1 W, pH 10): 0.6% | % largest unknown impurity ([2]; 55° C., 1 W, pH 10): 0.27% | % total impurities ([2]; 55° C., 1 W, pH 10): 1.5% | % largest unknown impurity ([2]; 55° C., 4 W, pH 9.5): 0.09% | % total impurities ([2]; 55° C., 4 W, pH 9.5): 2.1% | % Liothyronine ([2]; 55° C., 4 W, pH 10): 3.1% | % largest unknown impurity ([2]; 55° C., 4 W, pH 10): 0.55% | % total impurities ([2]; 55° C., 4 W, pH 10): 4.2%
